Reference: patent publication US3957978A, “Phosphonium anti-parasitics” (American Cyanamid Company, priority 1975, dated 1976)

Test system: Nematospiroides dubius
Assay: Evaluation (Efficacy) Test in Mice, Nematospiroides dubius
Format: in vivo
Description: The primary target parasite of this test is Nematospiroides dubius (Family: Heligmosomidae), which is phylogenetically related to certain economically important parasites of domestic and farm animals. Mice are orally inoculated with 20 to 30 infective N. dubius larvae. Mixed infections are obtained by subsequent inoculation with Aspicularis tetraptera and Hymenolepis nana. Eighteen days after inoculation the mice are divided into groups of four. Each group receives one compound at a specified dose rate, either as a single gavage dose or fed continually in the feed. Four groups of five mice each are utilized as infected, untreated controls. […] Those mice receiving single oral doses (SOD) or a single subcutaneous injection (Sc) of 5 mg./kg. to 100 mg./kg. of animal body weight of the compound under test are treated 22 days after inoculation. Eight days after start of treatment (drug diet) and 4 days post treatment (single dose SOD or Sc), the mice are necropsied, the worms recovered and counted. Percent efficacy for Nematospiroides is calculated using the formula: % Efficacy Equals [formula]
The diet used in the test procedures is a standard commercial mouse chow containing meat and bone meal, dried skimmed milk, wheat germ meal, fish meal, animal liver meal, dried beet pulp, ground extended corn, oat middlings, soybean meal, dehydrated alfalfa meal, cane molasses. animal fat preserved with BHA, vitamin B-12 supplement, calcium panthotenate, choline chloride, folic acid, riboflavin supplement, brewer's dried yeast, thiamine, niacin, vitamin A supplement, D activated plant sterol, vitamin E supplement, dicalcium phosphate, iodized salt, ferric ammonium citrate, iron oxide, manganous oxide, cobalt carbonate, copper oxide and zinc oxide; and the desired level of test compound.
When the drug is administered as a single oral dose, the drug is weighed and suspended in 0.2% agar, thoroughly mixed and orally introduced at the required volume.

In the case of `C(=P(c1ccccc1)(c1ccccc1)c1ccccc1)[P+](c1ccccc1)(c1ccccc1)c1ccccc1` [Type II, R1 Phenyl, X 2,6-Diiodo-4-nitrophenol] [Triphenyl[(triphenylphosphoranylidene)methyl]-phosphonium-2,6-diiodo-4-nitrophenolate], the “% Efficacy N.d.” value (drug diet, 0.006 % diet, 7 days) is reported as 41%, the “% Efficacy N.d.” value (drug diet, 0.0125 % diet, 7 days) is reported as 86.5% and the “% Efficacy N.d.” value (drug diet, 0.025 % diet, 7 days) is reported as 99.5%. For the same molecule, the “% Efficacy N.d.” value (single oral dose, 5 mg/kg, dosage weight is that of the cation) was 36.7%, the “% Efficacy N.d.” value (single oral dose, 10 mg/kg, dosage weight is that of the cation) was 44.7% and the “% Efficacy N.d.” value (single oral dose, 25 mg/kg, dosage weight is that of the cation) was 88.5%.
Molecule `CCCCCCC(=P(c1ccccc1)(c1ccccc1)c1ccccc1)[P+](c1ccccc1)(c1ccccc1)c1ccccc1` [Type II, R2 n-Hexyl, X Br] has an inhibition in vivo at 0.006 % (Heligmosomoides polygyrus, po, 168 h, drug diet, 0.006 % diet, 7 days, read-out: % Efficacy N.d.) of 58%, an inhibition in vivo at 0.0125 % (Heligmosomoides polygyrus, po, 168 h, drug diet, 0.0125 % diet, 7 days, read-out: % Efficacy N.d.) of 79% and an inhibition in vivo at 0.025 % (Heligmosomoides polygyrus, po, 168 h, drug diet, 0.025 % diet, 7 days, read-out: % Efficacy N.d.) of 100%. The inhibition in vivo at 25 mg/kg (Heligmosomoides polygyrus, po, single oral dose, 25 mg/kg, read-out: % Efficacy N.d.) was 39%, the inhibition in vivo at 50 mg/kg (Heligmosomoides polygyrus, po, single oral dose, 50 mg/kg, read-out: % Efficacy N.d.) was 61% and the inhibition in vivo at 100 mg/kg (Heligmosomoides polygyrus, po, single oral dose, 100 mg/kg, read-out: % Efficacy N.d.) was 94%.
